# Data taken from US20210371899A1, “METHOD AND KIT FOR […], AND PLASMID, BACULOVIRUS, CELL AND METHOD OF PREPARING THE SAME FOR PESTICIDE DETECTIONS” (priority 2018, published 2021).
# Like-named read-outs stand apart in the source and are kept apart here.
# How the values were obtained:
# AChE (Abcam) = AChE (Abcam) (UniProt O42275); assay: Inhibition of purified standard AChE (Abcam); format: biochemical
# Experimental: AChE activity was determined by Ellman's method. For each 96-well, 50 μl of 3 mM ATCh and 50 μl of 3 mM Ellman's reagent DTNB solution was added. After 10 minutes of incubation at room temperature, average absorbance at 412 nm was determined. […] The diluted solutions were then added individually into 96-well microplates with Hi5 cells infected by the seven recombinant viruses (vDmAChE, vHsAChE, vRnAChE, vAmAChE, vSfAChE, DamAChE, and vBdAChE). […] After 10 minutes of incubation at room temperature, residual activity was determined with a microplate reader at 412 nm.
# [1] = target: commercialized AChE (Sichen) (Musca domestica, UniProt Q7YWJ9); assay: Inhibition of commercial AChE kit (Sichen), cuvette; format: biochemical, fly
# Experimental: (§1) Hi5 cells were infected with AChE-FL-bac (FL), AChE-6MC-bac (6MC) or WT-bac (WT) respectively, for 3 days. After the removal of media, the cells were subjected to a 5-hour lyophilization in the 96-well plates. Two OP and two CB insecticide compounds were serial-diluted and added to the infected cell samples, as well as a 100 mU/mL AChE (ST, Abcam) in 96-well plates and the commercialized AChE (Sichen) in cuvette for a further comparison. AChE activities were analyzed for all these sample in order to determine the sensitivities of these AChE to different insecticides. DMSO with different concentrations in DPBS were added to determine the background effects. Pesticides tested are: (a) paraoxon ethyl, (b) malaoxon, (c) carbofuran (d) carbaryl.
# Acetylcholinesterase Assay Kit (standard AChE) was purchased from Abcam. Rapid Bioassay of Pesticides Residues Reagent Kit (commercial AChE) was purchased from Sichen.
# The acetylcholinesterase stock solution was diluted into 50 units/mL in assay buffer at ratio 1:50 to generate 1000 mU/mL acetylcholinesterase standard solution. Then, the 1000 mU/mL acetylcholinesterase standard solution was further diluted into 300, 100, 30, 10, 3, 1 and 0 mU/mL for determining the average absorbance of each standard. The reading of each standard was plotted as a function of the amount of acetylcholinesterase to establish a standard curve, and the corresponding amount of AChE in each test samples was calculated by the derived linear equation. To calculate the inhibition of AChEs activity (%), vCont-Bac infected cells (without expression of AChE on the surface) served as the negative control, whereas Abcam purified protein, Sichen commercial protein, vAChE-FL and vAChE-6MC infected cells without pesticide incubation served as the positive control. The activity of the positive control was considered 100%.
# The remaining activity of AChE is evaluated by the following equation:
# Inhibition of AChEs activity (%)(ΔA0−ΔAS)/ΔA0)×100
# (§2) In which, ΔA0 indicates the change of absorbance of the positive control, and ΔAS indicates the change of absorbance of the applied pesticide incubated solution.
# As for a comparison, the test results using the most common AChE insecticide diagnostic kit in Taiwan sold by Sichen Inc. were also included, and the IC50 for all of the test samples were also calculated (Table 1). For Sichen, since they acquire the AChE from fly, also they have to use cuvette (1 mL) for measurement, thus high quantity of AChE should be used. […] In the present application, however, there are no need for fly rearing and no need for AChE purification. 96-well plate was applied, which requires only 100 μL solution for detection, and easily to handle, and can be read by bare eye for the detection of residue pesticides.
# [2] = target: T1, AChE-FL (full-length AChE Y408F displayed on Hi5 cells) (Drosophila melanogaster, UniProt P07140, R99G/Y408F); assay: Inhibition of cell-surface displayed AChE-FL (Ellman's method, ATCh/DTNB, 412 nm); format: biochemical
# T1 construct: honeybee mellitin signal peptide (HM) (N); expressed in transfected cells; host or cells: Trichoplusia ni High Five (Hi5) cells infected with recombinant baculovirus vAChE-FL, lyophilised in the plate
# Experimental: as §1
# (§3) AChE activity was determined by Ellman's method. For each 96-well, 50 μl of 3 mM ATCh and 50 μl of 3 mM Ellman's reagent DTNB solution was added. After 10 minutes of incubation at room temperature, average absorbance at 412 nm was determined. […] The diluted solutions were then added individually into 96-well microplates with Hi5 cells infected by the seven recombinant viruses (vDmAChE, vHsAChE, vRnAChE, vAmAChE, vSfAChE, DamAChE, and vBdAChE). After incubation for 10 minutes, substrate ATCh and DTNB solution were added to the reaction mixture. After 10 minutes of incubation at room temperature, residual activity was determined with a microplate reader at 412 nm.
# (§4) The acetylcholinesterase stock solution was diluted into 50 units/mL in assay buffer at ratio 1:50 to generate 1000 mU/mL acetylcholinesterase standard solution. Then, the 1000 mU/mL acetylcholinesterase standard solution was further diluted into 300, 100, 30, 10, 3, 1 and 0 mU/mL for determining the average absorbance of each standard. The reading of each standard was plotted as a function of the amount of acetylcholinesterase to establish a standard curve, and the corresponding amount of AChE in each test samples was calculated by the derived linear equation. […]
# (§5) The remaining activity of AChE is evaluated by the following equation: […]
# as §2
# (§6) As for a comparison, the test results using the most common AChE insecticide diagnostic kit in Taiwan sold by Sichen Inc. were also included, and the IC50 for all of the test samples were also calculated (Table 1). For Sichen, since they acquire the AChE from fly, also they have to use cuvette (1 mL) for measurement, thus high quantity of AChE should be used. […] 96-well plate was applied, which requires only 100 μL solution for detection, and easily to handle, and can be read by bare eye for the detection of residue pesticides.
# [3] = target: T2, AChE-6MC (truncated AChE Y408F fused with TM and CTD of baculovirus GP64, displayed on Hi5 cells) (Drosophila melanogaster, UniProt P07140, R99G/Y408F); assay: Inhibition of cell-surface displayed AChE-6MC (Ellman's method, ATCh/DTNB, 412 nm); format: biochemical
# T2 construct: honeybee mellitin signal peptide (HM) (N); expressed in transfected cells; host or cells: Trichoplusia ni High Five (Hi5) cells infected with recombinant baculovirus vAChE-6MC, lyophilised in the plate
# Experimental: as §1, §3, §4, §5, §2, §6
# [4] = read-out: IC50 of OP and CB towards AChEs, Abcam; 100 mU/mL purified AChE standard, 96-well plate
# [5] = commercialized AChE kit, cuvette (1 mL), read-out: IC50 of OP and CB towards AChEs, Sichen
# [6] = Hi5 cells infected with vAChE-FL, 3 days, lyophilized 5 h, 96-well plate, read-out: IC50 of OP and CB towards AChEs, AChE-FL
# [7] = Hi5 cells infected with vAChE-6MC, 3 days, lyophilized 5 h, 96-well plate, read-out: IC50 of OP and CB towards AChEs, AChE-6MC
Structure (SMILES),IC50 (AChE (Abcam); [4]) [nM],IC50 [1] [nM],IC50 [2] [nM],IC50 [3] [nM],"IC50 (AChE (Abcam); 100 mU/mL purified AChE standard, 96-well plate; read-out: IC50 of OP and CB towards AChEs, Abcam) [nM]","IC50 [1, 5] [nM]","IC50 [2, 6] [nM]","IC50 [3, 7] [nM]"
"CNC(=O)Oc1cccc2ccccc12 [Carbaryl, carbaryl]",6500,5900,6800,650,–,–,–,–
"CNC(=O)Oc1cccc2c1OC(C)(C)C2 [Carbofuran, carbofuran]",–,–,–,–,540,2800,48000,4500
"CCOC(=O)CC(SP(=O)(OC)OC)C(=O)OCC (stereo not drawn) [Malaoxon, malaoxon]",820,950,560,62,–,–,–,–
"CCOP(=O)(OCC)Oc1ccc([N+](=O)[O-])cc1 [Paraoxon ethyl, paraoxon ethyl]",–,–,–,–,–,2300,490,55
